Assays:
[1] = Water solubility of ART631, alone and loaded into nanogels; format: physicochemical; conditions: drug without nanogel
[2] = tested on: 9 human leukemia cell lines; conditions: 9 human leukemia cell lines in vitro; cited from earlier work
[3] = tested on: MOLM14 human acute myeloid cells; assay: MTT cytotoxicity assay, MOLM14; format: cell-based; conditions: concentration 0.0025 mg/mL
Method: The MOLM14 AML cell line, MV4;11, and THP1 cell lines were cultured and incubated in RPMI 1640 medium with 10% FBS at 37° C. and air containing 5% CO2. When the cells reached about 70% confluency, the cells were split with a density of 40,000 cells per cm^2. Adult Retinal Pigment Epithelial (ARPE-19) cells were grown in Dulbecco's Modified Eagle Medium (DMEM)/F12 (1:1) with 10% FBS and 1% Penicillin-Streptomycin (Pen-Strep). Dental Pulp Stem Cells (DPSCs) were grown in DMEM with glutamine and 10% FBS and 1% Pen-Strep. A Hemolysis assay kit was purchased from Creative Biolabs™.
The cytotoxicity of plain nanogels, plain SDS nanogels and 2, 5, 10 and 15 wt % ART631-loaded NanoART631 were assessed using thiazolyl blue tetrazolium bromide (MTT) and WST1 assays against MOLM14 human acute myeloid cells, MV4;11 cells, THP1 cells, normal adult retinal pigment epithelium-19 (ARPE-19) cells, and dental pulp stem cells (DPSCs). […] Pure ART631, ART838, 5 and 10 wt % NanoART631 IC50 were determined by adding 5e^−6, 5e^−5, 5e^−4, 6.25e^−4, 0.001, 0.0025, 0.005, 0.01, 0.05, 0.1, 0.2, 0.5, 1, 5, 10 mg·mL-1 of the formulation to MOLM14 AML cells. […] Absorbance was read at 570 nm using a BioTek™ cytation 5 microplate reader for all experiments after removing all the wells contents and then dissolving the formazan crystals in 150 μL of DMSO. […]

Structure (SMILES) | solubility [1] | IC50 [2] | MOLM14 cells killed [3]
C=CCO/N=C(/C[C@H]1O[C@@H]2O[C@@]3(C)CC[C@H]4[C@H](C)CC[C@@H]([C@H]1C)[C@@]24OO3)[C@H]1O[C@@H]2O[C@@]3(C)CC[C@H]4[C@H](C)CC[C@@H]([C@H]1C)[C@@]24OO3 [ART631] | < 10 µg/mL | < 0.045 µM | 67%
C[C@@H]1CCC2[C@@H](C)[C@@H](CC(COP(=O)(Oc3ccccc3)Oc3ccccc3)C[C@H]3O[C@@H]4O[C@@]5(C)CCC6[C@H](C)CCC([C@H]3C)[C@]64OO5)O[C@@H]3O[C@@]4(C)CCC1[C@@]23OO4 (stereo partly shown) [ART838] |  |  | 64%

Reference: patent publication US20250262146A1, “PLATFORM NANOPARTICLE TECHNOLOGY FOR SUSTAINED DELIVERY OF HYDROPHOBIC DRUGS” (UNIVERSITY OF MARYLAND, BALTIMORE, priority 2022, published 2025)
